From US10907197B2, “Probes for imaging huntingtin protein” (CHDI Foundation, Inc., priority 2014, dated 2021)

Target: T1, Q46 protein aggregates (Homo sapiens, UniProt P42858, INS38QQQQQQQQQQQQQQQQQQQQQQQQQ)
T1 construct: 33 μM GST-Q46 was incubated with 150 μg/mL thrombin in assay buffer (150 mM NaCl, 50 mM Tris pH 8.0) and 2 mM CaCl2 for 16 hr at 37° C; fused on or other part: GST at the N-terminus
T1 sequence (P42858 with tags, fused parts or gaps with the stated changes): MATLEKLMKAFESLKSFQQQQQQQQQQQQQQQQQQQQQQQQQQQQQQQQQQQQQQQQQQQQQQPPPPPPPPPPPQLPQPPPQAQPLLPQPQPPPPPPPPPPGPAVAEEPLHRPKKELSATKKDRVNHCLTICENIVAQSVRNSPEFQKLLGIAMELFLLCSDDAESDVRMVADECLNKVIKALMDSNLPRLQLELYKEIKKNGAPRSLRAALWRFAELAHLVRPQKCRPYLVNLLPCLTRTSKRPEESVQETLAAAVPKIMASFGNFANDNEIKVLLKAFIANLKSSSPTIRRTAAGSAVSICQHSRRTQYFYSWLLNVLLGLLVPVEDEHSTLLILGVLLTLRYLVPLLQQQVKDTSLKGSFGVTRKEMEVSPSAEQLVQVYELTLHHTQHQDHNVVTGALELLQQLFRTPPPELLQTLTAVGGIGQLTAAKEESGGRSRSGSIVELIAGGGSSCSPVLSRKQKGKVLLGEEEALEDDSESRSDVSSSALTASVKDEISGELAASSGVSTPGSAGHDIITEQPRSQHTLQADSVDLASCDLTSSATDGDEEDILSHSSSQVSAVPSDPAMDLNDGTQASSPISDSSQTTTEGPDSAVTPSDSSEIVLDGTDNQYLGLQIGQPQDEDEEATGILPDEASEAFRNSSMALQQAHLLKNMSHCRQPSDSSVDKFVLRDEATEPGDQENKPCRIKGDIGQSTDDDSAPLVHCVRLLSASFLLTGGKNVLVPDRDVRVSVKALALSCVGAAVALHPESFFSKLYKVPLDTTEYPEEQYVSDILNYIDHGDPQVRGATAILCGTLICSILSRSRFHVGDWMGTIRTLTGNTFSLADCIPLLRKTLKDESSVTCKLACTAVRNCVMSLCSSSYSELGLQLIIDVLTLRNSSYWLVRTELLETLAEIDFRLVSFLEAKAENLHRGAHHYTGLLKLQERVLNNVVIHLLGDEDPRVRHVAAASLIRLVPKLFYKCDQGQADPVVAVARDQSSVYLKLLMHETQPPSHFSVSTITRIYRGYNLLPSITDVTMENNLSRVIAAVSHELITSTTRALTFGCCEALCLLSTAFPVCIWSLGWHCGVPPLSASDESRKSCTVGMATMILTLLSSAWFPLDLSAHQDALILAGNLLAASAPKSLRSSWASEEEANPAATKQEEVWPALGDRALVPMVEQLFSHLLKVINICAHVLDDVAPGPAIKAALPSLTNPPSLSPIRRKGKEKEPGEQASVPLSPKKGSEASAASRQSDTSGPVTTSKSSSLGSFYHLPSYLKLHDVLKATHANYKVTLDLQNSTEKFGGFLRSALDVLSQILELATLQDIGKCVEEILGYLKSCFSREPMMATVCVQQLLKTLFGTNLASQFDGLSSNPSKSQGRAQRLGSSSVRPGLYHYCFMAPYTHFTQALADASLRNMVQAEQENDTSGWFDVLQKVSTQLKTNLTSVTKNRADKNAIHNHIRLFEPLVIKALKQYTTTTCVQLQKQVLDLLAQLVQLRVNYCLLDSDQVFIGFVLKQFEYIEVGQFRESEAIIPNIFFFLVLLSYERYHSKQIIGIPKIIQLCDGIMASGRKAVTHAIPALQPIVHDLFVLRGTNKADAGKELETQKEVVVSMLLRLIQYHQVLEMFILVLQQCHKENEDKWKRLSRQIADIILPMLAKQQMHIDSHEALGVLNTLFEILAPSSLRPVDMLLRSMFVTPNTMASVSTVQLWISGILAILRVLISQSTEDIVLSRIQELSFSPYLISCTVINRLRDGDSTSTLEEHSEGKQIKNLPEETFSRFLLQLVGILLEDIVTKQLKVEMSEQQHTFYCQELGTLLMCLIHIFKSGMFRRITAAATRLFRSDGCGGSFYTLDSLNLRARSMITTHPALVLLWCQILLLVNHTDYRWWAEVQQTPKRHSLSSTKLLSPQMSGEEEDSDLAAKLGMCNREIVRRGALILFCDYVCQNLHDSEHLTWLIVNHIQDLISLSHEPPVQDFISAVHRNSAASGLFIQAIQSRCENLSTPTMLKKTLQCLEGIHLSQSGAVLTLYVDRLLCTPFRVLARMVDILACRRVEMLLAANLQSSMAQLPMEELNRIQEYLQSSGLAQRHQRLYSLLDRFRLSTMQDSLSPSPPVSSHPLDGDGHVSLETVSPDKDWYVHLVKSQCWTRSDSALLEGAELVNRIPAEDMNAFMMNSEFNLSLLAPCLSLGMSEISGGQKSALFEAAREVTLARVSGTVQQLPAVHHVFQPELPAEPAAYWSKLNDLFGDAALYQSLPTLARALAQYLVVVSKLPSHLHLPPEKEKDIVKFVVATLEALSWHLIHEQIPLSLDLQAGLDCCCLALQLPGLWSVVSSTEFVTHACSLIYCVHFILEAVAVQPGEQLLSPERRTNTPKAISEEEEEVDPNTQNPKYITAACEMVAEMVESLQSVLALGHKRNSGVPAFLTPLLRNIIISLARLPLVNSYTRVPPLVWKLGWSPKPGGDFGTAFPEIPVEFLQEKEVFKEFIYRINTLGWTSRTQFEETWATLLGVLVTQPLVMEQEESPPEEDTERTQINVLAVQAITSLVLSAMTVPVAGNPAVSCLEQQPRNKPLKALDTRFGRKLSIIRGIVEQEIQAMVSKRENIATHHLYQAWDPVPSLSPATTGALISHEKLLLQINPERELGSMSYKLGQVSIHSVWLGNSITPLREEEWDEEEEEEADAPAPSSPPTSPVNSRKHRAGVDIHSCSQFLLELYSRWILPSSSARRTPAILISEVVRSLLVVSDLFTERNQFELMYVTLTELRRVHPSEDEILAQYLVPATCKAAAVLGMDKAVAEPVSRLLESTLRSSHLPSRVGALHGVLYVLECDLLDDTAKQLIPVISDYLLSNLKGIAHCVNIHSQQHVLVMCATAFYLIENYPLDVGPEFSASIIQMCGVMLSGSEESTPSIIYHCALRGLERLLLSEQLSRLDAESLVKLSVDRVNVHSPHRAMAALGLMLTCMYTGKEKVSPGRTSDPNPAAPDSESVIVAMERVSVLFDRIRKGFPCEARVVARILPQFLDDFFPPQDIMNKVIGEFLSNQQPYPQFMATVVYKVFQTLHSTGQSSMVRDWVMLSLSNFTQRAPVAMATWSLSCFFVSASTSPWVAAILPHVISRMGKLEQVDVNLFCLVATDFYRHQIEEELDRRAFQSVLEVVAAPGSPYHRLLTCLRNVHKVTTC
Experiment: Q46 Radioligand Binding Assay (RBA)
Conditions: displacement of 10 nM [3H3]MK-3328 from 5 μM Q46 protein aggregates, 60 min at 37° C.
Procedure: Q46 Radioligand Binding Assay
For radioligand binding assays (RBA) GST-Q46 protein was generated based on a previous publication (Scherzinger et al. Cell, Vol. 90, 549-558, Aug. 8, 1997). For experiments 33 μM GST-Q46 was incubated with 150 μg/mL thrombin in assay buffer (150 mM NaCl, 50 mM Tris pH 8.0) and 2 mM CaCl2 for 16 hr at 37° C. Aggregated Q46 was pelleted by centrifugation for 5 min at 13,000 rpm in a bench top centrifuge and re-dissolved in the same volume of assay buffer. Test compounds were prepared by titration in DMSO at 11 concentrations from 33 μM to 1 nM. For the RBA, Q46 protein aggregates and test compounds were pre-incubated in assay buffer for 20 min at room temperature, in 140 μL/well in a 96-well plate (pp, round bottom). Then, ligand was added in 10 μL/well and incubated for 60 min at 37° C. Final assay concentrations were 1 μM to 30 pM test compound, 5 μM Q46 protein (equivalent monomer concentration) and 10 nM ligand [^3H3]MK-3328 (Harrision et al., ACS Med. Chem. Lett., 2 (2011), pp 498-502). Samples were transferred onto GF/B filter plates and washed 2× with 200 μL PBS using a Filtermate Harvester. After drying filter plates for 1 hr at 37° C., the back of the plates was sealed with foil and 30 μL/well scintillation fluid (Packard MicroScint 40) was added, incubated for incubated for 15 min in the dark and counted in a TopCount reader. […] IC50 values were determined with a sigmoidal inhibition model with four variables (top, bottom, slope, IC50) in a global fit using the normalized replicate data.
With `N#Cc1cnccc1-c1nc2ccc(C(F)(F)F)cc2s1` [4-[6-(trifluoromethyl)-1,3-benzothiazol-2-yl]pyridine-3-carbonitrile] the IC50 was < 100 nM. For `COc1ccc2oc(-c3cc(CN(C)C)ccc3C#N)cc2c1` [4-[(dimethylamino)methyl]-2-(5-methoxy-1-benzofuran-2-yl)benzonitrile], the IC50 was < 100 nM. With `COc1ccc2oc(-c3ncnc(I)c3C#N)cc2c1` [4-iodo-6-(5-methoxy-1-benzofuran-2-yl)pyrimidine-5-carbonitrile] the IC50 was > 500 nM. With `CN(CCO)c1ccc2oc(-c3ccncc3C#N)cc2c1` [4-{5-[(2-hydroxyethyl)(methyl)amino]-1-benzofuran-2-yl}pyridine-3-carbonitrile] the IC50 was < 100 nM. In the case of `COc1cc2cc(-c3ccncc3C#N)oc2cn1` [4-{5-methoxyfuro[2,3-c]pyridin-2-yl}pyridine-3-carbonitrile], the IC50 is reported as < 100 nM. With `COc1cnc2cc(-c3ccncc3C#N)oc2c1` [4-{6-methoxyfuro[3,2-b]pyridin-2-yl}pyridine-3-carbonitrile] the IC50 was < 100 nM. With `COc1ccc2oc(-c3ccc(Br)cc3C#N)cc2c1` [5-bromo-2-(5-methoxy-1-benzofuran-2-yl)benzonitrile] the IC50 was < 100 nM. In the case of `O=c1[nH]cc(Br)cc1-c1cc2cc(Br)cnc2o1` [5-bromo-3-{5-bromofuro[2,3-b]pyridin-2-yl}-1,2-dihydropyridin-2-one], the IC50 is reported as < 100 nM. In the case of `COc1ccc2oc(-c3ccncc3)c(C#N)c2c1` [5-methoxy-2-(pyridin-4-yl)-1-benzofuran-3-carbonitrile], the IC50 is reported as < 100 nM. In the case of `COc1ccc2oc(-c3ccc(C#N)cn3)cc2c1` [6-(5-methoxy-1-benzofuran-2-yl)pyridine-3-carbonitrile], the IC50 is reported as < 100 nM. With `COc1ccc2nc(-c3ccccc3OC)sc2c1` [6-methoxy-2-(2-methoxyphenyl)-1,3-benzothiazole] the IC50 was 100 to 500 nM. For `COc1ccc2nc(-c3cccnc3)oc2c1` [6-methoxy-2-(pyridin-3-yl)-1,3-benzoxazole], the IC50 was 100 to 500 nM. For `COc1ccc2nc(-c3ccncc3-c3ccn[nH]3)sc2c1` [6-methoxy-2-[3-(1H-pyrazol-5-yl)pyridin-4-yl]-1,3-benzothiazole], the IC50 was 100 to 500 nM. For `COc1ccc2oc(-c3cccc4cn[nH]c34)cc2c1` [7-(5-methoxy-1-benzofuran-2-yl)-1H-indazole], the IC50 was < 100 nM. In the case of `COc1ccc2nc(-c3ccncc3NC(C)=O)sc2c1` [N-[4-(6-methoxy-1,3-benzothiazol-2-yl)pyridin-3-yl]acetamide], the IC50 is reported as < 100 nM. With `COc1ccc2oc(-c3cccc(NC(C)=O)n3)cc2c1` [N-[6-(5-methoxy-1-benzofuran-2-yl)pyridin-2-yl]acetamide] the IC50 was < 100 nM. In the case of `OCc1ccc2oc(-c3cccnc3)nc2c1` [[2-(pyridin-3-yl)-1,3-benzoxazol-5-yl]methanol], the IC50 is reported as > 500 nM.

Test system: recombinant tau and amyloid β1-42 (Aβ1-42) aggregates
Experiment: not given
Conditions: higher affinity for the tau aggregates than Aβ1-42 aggregates; cited from earlier work
For `CN(C)c1ccc(/C=C/c2nc3ccc(I)cc3[nH]2)cc1` [SBIM-3, 4-[(E)-2-(6-iodo-1H-benzimidazol-2-yl)ethenyl]-N,N-dimethylaniline], the “ratio of Kd values” is listed as 2.73.

Test system: NFT in sections of AD brain tissue
Experiment: not given
Conditions: cited from earlier work
For `CN(C)c1ccc(/C=C/c2nc3ccc(I)cc3[nH]2)cc1` [SBIM-3, 4-[(E)-2-(6-iodo-1H-benzimidazol-2-yl)ethenyl]-N,N-dimethylaniline], the “binding to NFT” value is listed as “bound NFT in sections of AD brain tissue”.
